EP0726903B1, “MATRIX METALLOPROTEASE INHIBITORS” (SYNTEX (U.S.A.) INC., priority 1993, dated 1995)

How the values were obtained:
[1] = system: bovine PTH induced bone resorption; test: In vitro fetal rat long bone model of bone resorption (45Ca release); format: cell-based; details: ^45Ca release from fetal rat long bones, Bovine PTH (1-34) at 1x10^-8M, Day 6
Description: An in vitro fetal rat long bone model was used to study the anti-bone resorptive effect of the compounds of formula (I). Bovine PTH was used to induce bone resorption in vitro. The bone resorptive effects were expressed by the amounts of ^45Ca released from the ^45Ca pre-labelled fetal rat long bones into the culture medium. The inhibitory effect of the compounds of formula (I) against bovine PTH induced bone resorption was expressed as mean percent inhibition ± sem.
^45Ca-prelabelled fetal rat long bones (from forearms) were dissected and cultured in Linbro dishes at 37°C overnight BGJb medium, supplemented with lmg/ml BSA. There were five pairs of bones in each group. The compounds of formula (I) were dissolved in ethanol first, then diluted to various concentrations and added simultaneously with Bovine PTH (1-34) at […] on Day 1. […] The assay was terminated on Day 6 with one media change on Day 3.
At the end of each medium change, the ^45Ca present in the culture medium was counted. The remaining bones were digested with 0.1N HCl and the ^45Ca presented in the bone digest was also counted. The results are expressed as % of the total ^45Ca released from each pair of bones. Bovine PTH at 1x10^-8M induces bone resorption to the maximum level which is set as 100% and this concentration was used as standard. The level of base line bone resorption in the presence of medium only was set as 0%. All compound-treated groups were compared with bovine PTH (1-34) at 1x10^-8M.

[2] = biological target: T1, HFC (Homo sapiens, UniProt P03956); test: In vitro enzyme inhibition assay (fluorescence, thiopeptide substrate), HFC; format: biochemical
T1 sequence (P03956 100-469): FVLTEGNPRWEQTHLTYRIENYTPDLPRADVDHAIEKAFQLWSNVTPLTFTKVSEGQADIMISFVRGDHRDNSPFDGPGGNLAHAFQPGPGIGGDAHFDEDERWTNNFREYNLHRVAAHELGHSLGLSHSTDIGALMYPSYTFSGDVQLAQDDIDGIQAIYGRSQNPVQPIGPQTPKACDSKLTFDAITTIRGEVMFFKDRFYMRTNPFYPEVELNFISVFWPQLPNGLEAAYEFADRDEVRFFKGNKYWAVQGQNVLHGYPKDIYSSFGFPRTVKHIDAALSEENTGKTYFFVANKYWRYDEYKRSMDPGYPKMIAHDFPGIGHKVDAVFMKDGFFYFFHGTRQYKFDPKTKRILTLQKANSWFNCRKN

[3] = biological target: STROM. (Homo sapiens, UniProt P08254); test: In vitro enzyme inhibition assay (fluorescence, thiopeptide substrate), STROM.; format: biochemical
[4] = system: release of ^35S-labelled glycosaminoglycans (GAG's) from cartilage explants; test: Inhibition of release of 35S-labelled glycosaminoglycans from cartilage explants; format: cell-based; details: Bos taurus; bovine knee joint cartilage explants, release induced by rhIL-1-alpha
Protocol: This assay determines if the compounds of formula (I) inhibit the release of ^35S-labelled glycosaminoglycans (GAG's) from cartilage explants.
Small cartilage explants (3 mm diameter) were prepared from freshly sacrificed bovine knee joints and labeled with ^35SO4. ^35S-labelled glycosaminoglycans (GAG's) are released into the culture medium in response to the addition of rhIL-1-alpha, which induces the expression of chondrocyte matrix metalloproteases (MMP's), including stromelysin and collagenase. The percent inhibition of labeled GAG's was corrected for spontaneous release in the absence of rh1L-1-alpha. Results for each group represent the mean ± the S.E.M. for five explants.

Chain of STROM. (P08254 100-477): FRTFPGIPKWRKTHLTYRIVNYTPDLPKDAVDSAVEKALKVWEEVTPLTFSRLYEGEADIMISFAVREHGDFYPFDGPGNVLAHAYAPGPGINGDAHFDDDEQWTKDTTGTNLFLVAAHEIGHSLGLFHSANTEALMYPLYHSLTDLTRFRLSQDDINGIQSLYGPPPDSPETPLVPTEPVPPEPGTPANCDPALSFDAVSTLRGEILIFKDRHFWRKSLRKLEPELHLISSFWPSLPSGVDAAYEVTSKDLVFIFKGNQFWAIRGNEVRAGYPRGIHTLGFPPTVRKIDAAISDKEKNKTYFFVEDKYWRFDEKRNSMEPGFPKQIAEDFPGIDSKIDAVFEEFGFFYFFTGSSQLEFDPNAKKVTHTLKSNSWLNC

Row | IC50 [2] | IC50 [3] | IC50 ([1]; 144 h) | SMILES | IC50 [1] | EC50 [4]
1 | – | – | – | COC(=O)c1ccc(NC(=O)[C@H](Cc2c[nH]c3ccccc23)NC(=O)C(CC(=O)NO)CC(C)C)cc1 (single isomer, unassigned) [Compound 4, N-(4-methyl-2-(N"-hydroxycarbamoyl)methylpentanoyl)-L-tryptophan-N'-(4-methoxycarbonylphenyl)carboxamide] | ≥ 5000 nM | –
2 | – | – | – | COC(=O)c1ccc(NC(=O)[C@H](Cc2c[nH]c3ccccc23)NC(=O)C(CC(=O)NO)CC(C)C)cc1 (single isomer, unassigned) [Compound 3, N-(4-methyl-2-(N"-hydroxycarbamoyl)methylpentanoyl)-L-tryptophan-N'-(4-methoxycarbonylphenyl)carboxamide] | 50 nM | –
3 | – | – | – | COC(=O)c1ccc(NC(=O)[C@H](CCSC)NC(=O)C(CC(C)C)CP(=O)(O)CSc2ccc3ccccc3n2)cc1 (stereo partly drawn) [Compound 1, N-(2-(hydroxy)(quinolin-2-ylthiomethyl)phosphinoylmethyl-4-methylpentanoyl)-L-methionine-N'-(4-methoxycarbonylphenyl)carboxamide] | ≥ 5000 nM | –
4 | 8.4 nM | 1.4 nM | 270 nM | COC(=O)c1ccc(NC(=O)[C@H](CC(C)C)NC(=O)C(CC(=O)NO)CC(C)C)cc1 (stereo partly drawn) [Compound 2, N-(4-methyl-2-(N"-hydroxycarbamoyl)methylpentanoyl)-L-leucine-N'-(4-methoxycarbonylphenyl)carboxamide] | – | 3500 nM
